One series concerns the target DQA10501-DQB10201 (Homo sapiens, UniProt P01909+P01920, A45G/A70V/D89A/E106A/E77G/E98D/H199R/L107V/N214S/P84L/P87L/T103K/T109R/T172A/T60S/V78E/V99I/Y58L/Y62S/Y69I/Y79F). The series can be described thus: Competitive MHC class II binding assay, DQA10501-DQB10201.
In a further series the target is DRB3_0101 (Homo sapiens, UniProt P01903+P79483). The series is described as follows: Competitive MHC class II binding assay, DRB3_0101.
Another series deals with DRB3_0202 (Homo sapiens, UniProt P01903+P79483, A212P/D57E/F66Y/L67A/R103Q/R218S/R40L/S89Y/T80R/V86D/Y55F/Y59H). The series is described as follows: Competitive MHC class II binding assay, DRB3_0202.
The next series addresses DRB1_1302 (Homo sapiens, UniProt P01903+P01911, A100E/A169T/K41T/L162R/M171V/P40S/Q125H/Q178H/Q39Y/Q99D/R42S/S66N/T262R/V115G/W38E/Y61H). The series can be described thus: Competitive MHC class II binding assay, DRB1_1302.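 Note: purified HLA class II protein incubated two to four days with a radiolabeled reference binder and test peptide at six concentrations over a 100,000-fold range, complex-bound radioactivity counted.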
A short description of series [1]: Solubility of peptides in aqueous solutions at different pH (visual inspection, OD, HPLC). In kind it is physicochemical. The following applies: for Solubility at pH 7: evaluated by visual inspection. The text has this:
This example describes modifications of parent peptides to improve the aqueous solubility, in particular to increase the solubility in an aqueous solution having pH in a physiologically acceptable range, e.g. from 6 to 8. Solubility is closely related to the ratio between hydrophilic and hydrophobic amino acid residues and the net charge state of the peptide. Peptides have zero net charge at pH=pI, and would be expected to show the lowest solubility at this pH. […] The solubility of these peptides was increased at pH values outside the physiological range (data not shown).
Peptides were tested for their ability to dissolve in aqueous solutions at different pH values. In short, each of the peptides were dissolved in water (pH about 5-6), hydrochloride solution at pH 2 (10 mM HCl), acetate buffer with pH 5 (20 mM acetate and 140 mM sodium chloride), phosphate buffer with pH 7 (20 mM phosphate and 140 mM sodium chloride) or bistrispropate buffer with pH 9 (20 mM bitrispropane and 140 mM sodium chloride, respectively, to produce a final molar concentration of the peptide of about 0.25 mM or 1 mM. Optionally, about 20% DMSO may be part of the solution. For comparison reasons, peptides were also dissolved in acetonitrile or DMSO. The solutions were inspected visually before and after centrifugation for turbidity, presence of particles/aggregates. In addition, presence of turbidity/particles/aggregates were detected by optical density (OD), but might also be detected by size-exclusion chromatography. Sub-visual particles may also be detected by dynamic light scattering (DLS) analysis. The solubility and stability of each peptide were also investigated using HPLC, e.g. RP-HPLC. For example, each of the solutions were injected onto the HPLC and the peak height or peak area of each of the peptides were compared to the corresponding peptide of a chromatogram of peptides dissolved in acetonitrile or DMSO—as peptides were assumed to be fully dissolved and stable in these solvents.

A further series addresses DQA10501-DQB10301 (Homo sapiens, UniProt P01909+P01920). The series is described as follows: Competitive MHC class II binding assay, DQA10501-DQB10301.
The target in the next series is DRB1_0701 (Homo sapiens, UniProt P01903+P01911, A100R/A102G/A103Q/D57E/D86V/E43K/F76Y/K127E/L162R/M171V/P40G/Q125H/Q99D/R33Q/R42Y/R54Q/S133A/S66F/T210M/V115G/Y107V/Y59L/Y89S). The series is described as follows: Competitive MHC class II binding assay, DRB1_0701.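 Note: displacement of a radiolabeled reference peptide from purified HLA class II protein, with complex-bound radioactivity counted after 2–4 days of incubation and six concentrations spanning a 100,000-fold range.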
Another series addresses DRB1_0101 (Homo sapiens, UniProt P01903+P01911, A100R/D57E/F55L/F60I/F76Y/I96L/L162R/M171V/P40L/Q125E/R42F/V115G/Y59C). The series is described as follows: Competitive MHC class II binding assay, DRB1_0101.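 Note: competition against a radiolabeled probe peptide (0.1–1 nM) for purified HLA class II protein over 2–4 days, bound counts read after antibody capture, six competitor levels across 100,000-fold.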
In another series the target is DRB4_0101 (Homo sapiens, UniProt P01903+P13762, G164S). The series can be described thus: Competitive MHC class II binding assay, DRB4_0101.
The target of the next series is DQA10102-DQB10602. The series is described as follows: Competitive MHC class II binding assay, DQA10102-DQB10602. The following applies: read-out: HLA-DQA10102-DQB10602; positive binding at cutoff 1000 nM.
The next series concerns the target DRB1_0901 (Homo sapiens, UniProt P01903+P01911, A100R/A103E/D57H/D86V/F55Y/F60I/F76Y/I96F/K127E/L162R/M171V/P40D/Q125H/Q99R/R33Q/R42F/S133A/S66N/T210M/V115G/W38K/Y107V/Y59G/Y89S). The series is described as follows: Competitive MHC class II binding assay, DRB1_0901.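 Note: displacement of a radiolabeled probe peptide from purified HLA class II protein, bound counts read after two to four days incubation, six concentrations spanning 100,000-fold, unlabeled probe as reference.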
For the next series, the target named is DRB1_1501 (Homo sapiens, UniProt P01903+P01911). The series can be described thus: Competitive MHC class II binding assay, DRB1_1501.
A further series concerns the target DRB5_0101 (Homo sapiens, UniProt P01903+Q30154). The series is described as follows: Competitive MHC class II binding assay, DRB5_0101.
The next series addresses DRB1_0802 (Homo sapiens, UniProt P01903+P01911, A100R/A103L/A169T/F76Y/H45Y/I96F/K41T/L162R/M171V/P40S/Q125H/Q178H/Q39Y/Q99D/R218S/R42G/S66Y/V115G/W38E). The series can be described thus: Competitive MHC class II binding assay, DRB1_0802.
The next series concerns the target DRB1_0405 (Homo sapiens, UniProt P01903+P01911, A100R/A169T/D86S/F76Y/I96L/K127E/L162R/M171V/N62H/P40V/Q125Y/R42H/S133A/S149N/S66Y/V115G/V209L/W38E). The series is described as follows: Competitive MHC class II binding assay, DRB1_0405.
The target of a further series is DRB1_0401 (Homo sapiens, UniProt P01903+P01911, A100K/A169T/F76Y/I96L/K127E/L162R/M171V/N62H/P40V/Q125Y/R42H/S133A/S149N/S66Y/V115G/V209L/W38E). The series can be described thus: Competitive MHC class II binding assay, DRB1_0401.

No end group written: not given here.

Consider TNASSINGNAPAEIDLRQM [pep-041], for which the IC50 on DQA10501-DQB10201, at DRB3_0101, at DRB3_0202 and at DRB1_1302 was below 1000 nM in each case.

In the case of “RRREALAQTHSAIAVIIGIKDLDARR [Peptide 146]”, in series [1], the “Solubility at pH 7 (visual inspection)” value is on record as “Clear”.

RRREALAQTHSAIAVIIGIKDLDAR [Peptide 145]: in series [1], the “Solubility at pH 7 (visual inspection)” value is “Clear”.

On to RHAVNIVGYSNAQGVDYWIVR [Peptide 136], for which, in [1], the “Solubility at pH 7 (visual inspection)” value is recorded as “Slight turbid”.

Consider RGIEYIQQNGVVEERSYPYVAR [pep-134], for which the “Solubility at pH 7” value in series [1] (Table 11a) was “Clear”.

Take HRGKPFQLEAVFEANQNTKT-NH2 [pep-151]: the “Solubility at pH 7” value in [1] (Table 11c) is listed as “Clear”.

Consider RRIEYIQQNGVVEERSYPYVARR [Peptide 141], for which the “Solubility at pH 7 (visual inspection)” value in series [1] is recorded as “Clear”.

Turning to KIREALAQTHSAIAVIIGIKDLDA-NH2 [pep-150], the “Solubility at pH 7” value in series [1] (Table 11c) was “Clear”.

Regarding `CC[C@H](C)[C@H](NC(=O)[C@H](CO)NC(=O)[C@@H]1CCCN1C(=O)[C@H](CCC(=O)O)NC(=O)[C@H](CO)NC(=O)CNC(=O)[C@H](Cc1c[nH]cn1)NC(=O)[C@H](CO)NC(=O)CN)C(=O)N[C@H](C(=O)N[C@@H](Cc1c[nH]cn1)C(=O)N[C@@H](CCCNC(=N)N)C(=O)NCC(=O)N[C@@H](CCCCN)C(=O)N1CCC[C@H]1C(=O)N[C@@H](Cc1ccccc1)C(=O)N[C@@H](CCC(N)=O)C(=O)N[C@@H](CC(C)C)C(=O)N[C@@H](CCC(=O)O)C(=O)N[C@@H](C)C(=O)O)[C@@H](C)CC` [pep-090], the IC50 at DQA10501-DQB10301, at DRB1_0701, at DRB1_0101, at DRB4_0101, on DQA10102-DQB10602 and at DRB1_0901 was below 1000 nM throughout. For the same molecule, the IC50 on DRB1_1501 and on DRB1_1302 was below 1000 nM in each case.

For the molecule RRRRHAVNIVGYSNAQGVDYWIVR [Peptide 132], in series [1], the “Solubility at pH 7 (visual inspection)” value is on record as “Slight turbid”.

With `CC[C@H](C)[C@H](NC(=O)[C@@H](NC(=O)[C@@H](N)CO)[C@@H](C)CC)C(=O)N[C@@H](Cc1c[nH]cn1)C(=O)N[C@@H](CCCNC(=N)N)C(=O)NCC(=O)N[C@@H](CCCCN)C(=O)N1CCC[C@H]1C(=O)N[C@@H](Cc1ccccc1)C(=O)N[C@@H](CCC(N)=O)C(=O)N[C@@H](CC(C)C)C(=O)N[C@@H](CCC(=O)O)C(=O)N[C@@H](C)C(=O)O` [pep-002], the IC50 on DQA10501-DQB10301, on DRB1_0701, on DRB1_0101, at DRB4_0101, at DRB1_0901 and at DRB1_1501 was below 1000 nM in each case. The molecule also displayed an IC50 on DRB1_1302 below 1000 nM.

Take LVGDNGVLASAIATHAKIRD-NH2 [pep-149]: the “Solubility at pH 7” value in [1] (Table 11c) is “Clear”.

Regarding YPPNANKIREALAQTHSAIA [pep-053], the IC50 on DQA10501-DQB10301, on DRB1_0701, at DRB1_0101, at DRB4_0101, at DQA10102-DQB10602 and at DRB5_0101 was below 1000 nM in each case. On DRB1_0901, the IC50 was below 1000 nM.

With RRHAVNIVGYSNAQGVDYWIVRR [Peptide 138], the “Solubility at pH 7 (visual inspection)” value in series [1] was “Slight turbid”.

Take RREALAQTHSAIAVIIGIKDLDAR [Peptide 144]: in series [1], the “Solubility at pH 7 (visual inspection)” value is given as “Clear”.

RIEYIQQNGVVEERSYPYVARR [Peptide 140]: in series [1], the “Solubility at pH 7 (visual inspection)” value is listed as “Clear”.

With RIEYIQQNGVVEERSYPYVAR [Peptide 139], in series [1], the “Solubility at pH 7 (visual inspection)” value is “Clear”.

In the case of RREALAQTHSAIAVIIGIKDLDA [Peptide 143], the “Solubility at pH 7 (visual inspection)” value in series [1] is given as “Slight turbid”.

As to NHEIKKVLVPGSHGSEPSII [pep-089], the IC50 on DRB4_0101 and at DRB1_0802 was below 1000 nM in each case.

For RHAVNIVGYSNAQGVDYWIVRR [Peptide 137], the “Solubility at pH 7 (visual inspection)” value in series [1] is “Clear”.

Turning to “ESVKYVQSNGGAI [HDM201, reference compound]”, the IC50 on DRB1_0405, at DRB1_0401, on DRB1_0701, on DRB1_0101, at DRB4_0101 and at DRB1_0802 was below 1000 nM throughout. Moreover, the IC50 on DRB3_0101, on DRB1_0901, at DRB1_1501 and at DRB1_1302 was below 1000 nM each time.

Take RRIEYIQQNGVVEERSYPYVARRR [Peptide 142]: the “Solubility at pH 7 (visual inspection)” value in series [1] is “Clear”.

On to `CC[C@H](C)[C@H](NC(=O)CNC(=O)[C@@H](N)CCCNC(=N)N)C(=O)N[C@@H](CCC(=O)O)C(=O)N[C@@H](Cc1ccc(O)cc1)C(=O)N[C@H](C(=O)N[C@@H](CCC(N)=O)C(=O)N[C@@H](Cc1c[nH]cn1)C(=O)N[C@@H](CC(N)=O)C(=O)NCC(=O)N[C@H](C(=O)N[C@H](C(=O)N[C@@H](CCC(N)=O)C(=O)N[C@@H](CCC(=O)O)C(=O)N[C@@H](CO)C(=O)O)C(C)C)C(C)C)[C@@H](C)CC` [pep-025], for which the IC50 on DQA10102-DQB10602 was below 1000 nM.

As for RRHAVNIVGYSNAQGVDYWIVRRR [Peptide 133], in series [1], the “Solubility at pH 7 (visual inspection)” value is on record as “Clear”.

In the case of GSHGSDPSIIHRGKPFTLEA [pep-102], the IC50 on DQA10501-DQB10301, on DRB1_0701, at DRB1_0101, on DRB4_0101, on DQA10102-DQB10602 and on DRB1_0901 was below 1000 nM each time. On DRB1_1501, this molecule showed an IC50 below 1000 nM.

The values are drawn from patent US20160251403A1, “PEPTIDE COMBINATIONS AND USES THEREOF IN TREATING DUST MITE ALLERGY” (ALK-ABELLO A/S, priority 2013, published 2016).
